What was measured:
[1] = test system: spleen cell; assay: Interferon-γ production of spleen cells stimulated by Con A (double antibody sandwich ELISA); assay type: cell-based; conditions: for Concentration of IFN-γ: Con A 0.5 μg/mL, 24 hours, n = 3; for Enhancement percentage: versus Con A alone
Protocol: Prepare spleen cell suspension in sterile condition. Adjust cell concentration to 5×10^6 cell/mL by adding RPMI-1640 culture with 20% bovine serum. Add 0.5 mL cell suspension, 0.25 mL Con A (final concentration is 0.5 μg/mL) and 0.25 mL samples with different concentrations in 24-well plate; and add RPMI-1640 culture in control wells. Incubate the plates in a 5% CO2 chamber at 37° C. for 24 hours. Centrifuge and collect supernatant, test the content of IFN-γ in supernatant by double antibody sandwich ELISA. The protocol is according to the instruction on ELISA kit.

[2] = Plasma concentration / pharmacokinetics in mouse (competitive ELISA); assay type: in vivo; conditions: 300 μg per mouse, injected peritoneally, parameters in 24 h; for AUC: n = 3; for Cmax / Tmax: serum, ip, 300 ug/animal; for Cmax: n = 3, read-out: Cmax; for Tmax: n = 3, read-out: Tmax
Protocol: Coating antigen: Dilute Tα1 detection antigen stock solution to a final concentration of 2 μg/mL with coating solution, and add it into the wells of ELISA plate for 0.1 mL per well, and incubate at 4° C. for 5 days. Then wash the ELISA plate 3 times with washing buffer, each 0.2 mL/well and 3 min/time. Add 0.2 mL blocking buffer to each well, incubate for 1.5 hours at 37° C., wash plate 2 times by washing buffer, and spin dried.
Sample preparation: Weight sample accurately, dissolve it in saline to a concentration of 1.5 mg/mL. Administrate 0.2 Ml by injection to each mouse peritoneally. Collect blood sample in 3 min, 20 min, 40 min, 1 h, 2 h, 3 h, 6 h, 8 h, 12 h, and 24 h. Collect serum by centrifuge the blood samples for 5 minutes at 10000 rpm, stored at −20° C. in a freezer. o prepare test sample, […] was added by 0.1 mL 1:1500 rabbit anti-Tα1 serum (final concentration is 1:6000), and 0.2 mL CD-1® mouse serum, and […]. Prepare blank control at the same time. Total volume is 0.4 mL. Incubate for 2 hours at 37° C. To prepare standard sample, Tα1 0.1 mL with different concentrations from 0.0004 to 400 μg/mL was added by 0.1 mL 1:1500 rabbit anti-Tα1 serum (final concentration is 1:6000), and 0.2 mL CD-1® mouse serum. Prepare blank control at the same time. Total volume is 0.4 mL. Incubate for 2 hours at 37° C.
Sample Testing Add the prepared test sample and standard sample to ELISA plate, 0.1 mL/well, reacting for 1 hour in 37° C. chamber. Wash the plates 3 times, spin dryed. Add substrate 0.1 mL/well for 10 minutes. Add 2 mol/L H2SO4 0.05 mL to each well to terminate the reaction. Measure the OD value at 450 nm. Plot the standard curve with the concentration of Tα1 standard sample as abscissa and OD value as vertical coordinate. Calculate the content of test sample according to this standard curve.

[3] = test system: T lymphocyte (spleen cell); assay: T lymphocyte proliferation stimulated by Con A (3H-TdR incorporation); assay type: cell-based, mouse; conditions: for 3H-TdR incorporation (cpm, x ± SD): Con A 0.5 μg/mL, 72 hours, n = 4; for Enhancement percentage: versus Con A alone
Protocol: Sacrifice mouse by draining artery blood, remove spleen in sterile condition, and make it to spleen cell suspension. After red blood cell lysis, wash for 3 times, and stain with Trypan Blue to count the living cells. The amount of living cells should be more than 95%. Dilute the cell concentration to 5×10^6 cell/mL by adding RPMI-1640 culture with 10% bovine serum. Add spleen cell suspension to a sterilized 96-well plate for 100 μL per well. The total amount is 200 μL per well (including 50 μL Con A and 50 μL medicament). Each sample concentration is repeated fro 3-4 wells. Incubate the plate in a 5% CO2 chamber for 72 hours, add 10 μci/mL ^3H-TdR 20 μL per well 16 hours before termination of the incubation, giving rise to a final concentration of 1.0 μci (37.0 KBq)/mL. Collect cells on filter membrane by using Herveste 96 cell harvester, dried in 80° C. oven for 20 minutes or dried in air. Put the dried filter membrane into 1450-423 microBeta sample bag, add scintillation liquid, and measure radioactivity (cpm) in Perkin Elmer MicroBeta Trilux 1450 Scintillation Counter.

[4] = Half-life in liver homogenate (HPLC); assay type: in vitro ADME; conditions: 37° C., sample 0.4 mg/mL or 0.8 mg/mL, read-out: t1/2 in liver homogenate (converted)
Protocol: Experimental method: Prepare 0.4 mg/mL or 0.8 mg/mL sample aqueous solution in centrifuge tube, adding 50 μL liver homogenate. Then incubate for different time in 37° C. water bath. Terminate the reaction and precipitate liver homogenate protein by heating the mixture in boiling water for 5 minutes. Centrifuge it (10000 rpm) for 10 minutes. Analyze the supernatant by HPLC. The data was statistically analyzed by Origin Prof. 5.0.
HPLC: Column temperature: 25° C.; Flow rate 1.0 mL/min; Detection wavelength: 200 nm; Mobile phase A: 0.1% TFA/H2O; Mobile phase B: 0.1% TFA/70% CH3CN.

Ac-SDAAVDTSSEITTKDLKEKKEVVEEAEN-OH [Tα1, reference compound]
Concentration of IFN-γ ([1]; Table 1-1, sample 1 μg/mL): 1449.3 ± 334.3 pg/mL | Enhancement percentage ([1]; Table 1-1, sample 1 μg/mL): +92.8% | Concentration of IFN-γ ([1]; Table 1-1, sample 10 μg/mL): 1514.0 ± 102.1 pg/mL | Enhancement percentage ([1]; Table 1-1, sample 10 μg/mL): +101.4% | Concentration of IFN-γ ([1]; Table 1-1, sample 100 μg/mL): 1007.2 ± 31.3 pg/mL | Enhancement percentage ([1]; Table 1-1, sample 100 μg/mL): +34.0% | Concentration of IFN-γ ([1]; Table 1-3, sample 1 μg/mL): 3609.6 ± 167.8 pg/mL | Enhancement percentage ([1]; Table 1-3, sample 1 μg/mL): +18.2% | Concentration of IFN-γ ([1]; Table 1-3, sample 10 μg/mL): 3891.5 ± 106.1 pg/mL | Enhancement percentage ([1]; Table 1-3, sample 10 μg/mL): +27.4% | Concentration of IFN-γ ([1]; Table 1-3, sample 100 μg/mL): 4361.3 ± 87.8 pg/mL | Enhancement percentage ([1]; Table 1-3, sample 100 μg/mL): +42.8% | AUC [2]: 9220 ng·h/mL | Cmax [2]: 10100 ng/mL | Tmax [2]: 20 min | 3H-TdR incorporation (cpm, x ± SD) ([3]; Table 2-1, sample 10 μg/mL): 17871 ± 4635 cpm | Enhancement percentage ([3]; Table 2-1, sample 10 μg/mL): +32.5% | 3H-TdR incorporation (cpm, x ± SD) ([3]; Table 2-1, sample 50 μg/mL): 17007 ± 1526 cpm | Enhancement percentage ([3]; Table 2-1, sample 50 μg/mL): +26.1% | 3H-TdR incorporation (cpm, x ± SD) ([3]; Table 2-1, sample 100 μg/mL): 14624 ± 3253 cpm | Enhancement percentage ([3]; Table 2-1, sample 100 μg/mL): +6.6% | 3H-TdR incorporation (cpm, x ± SD) ([3]; Table 2-2, sample 10 μg/mL): 18315 ± 2194 cpm | Enhancement percentage ([3]; Table 2-2, sample 10 μg/mL): +57.3% | 3H-TdR incorporation (cpm, x ± SD) ([3]; Table 2-2, sample 50 μg/mL): 17007 ± 1526 cpm | Enhancement percentage ([3]; Table 2-2, sample 50 μg/mL): +46.1% | 3H-TdR incorporation (cpm, x ± SD) ([3]; Table 2-2, sample 100 μg/mL): 14383 ± 3225 cpm | Enhancement percentage ([3]; Table 2-2, sample 100 μg/mL): +23.5% | half-life [4]: 252 min

Ac-SDAAVDTSSEITTKDLKEKKEVVEEAENC-NH2 [BMJBT009]
Concentration of IFN-γ ([1]; Table 1-1, sample 1 μg/mL): 1895.7 ± 49.8 pg/mL | Enhancement percentage ([1]; Table 1-1, sample 1 μg/mL): +152.2% | Concentration of IFN-γ ([1]; Table 1-1, sample 10 μg/mL): 1814.5 ± 105.5 pg/mL | Enhancement percentage ([1]; Table 1-1, sample 10 μg/mL): +141.4% | Concentration of IFN-γ ([1]; Table 1-1, sample 100 μg/mL): 672.1 ± 94.3 pg/mL | Enhancement percentage ([1]; Table 1-1, sample 100 μg/mL): −11.0% | AUC [2]: 2120 ng·h/mL | Cmax [2]: 443 ng/mL | Tmax [2]: 60 min | 3H-TdR incorporation (cpm, x ± SD) ([3]; Table 2-1, sample 10 μg/mL): 24888 ± 2473 cpm | Enhancement percentage ([3]; Table 2-1, sample 10 μg/mL): +84.5% | 3H-TdR incorporation (cpm, x ± SD) ([3]; Table 2-1, sample 50 μg/mL): 24164 ± 2683 cpm | Enhancement percentage ([3]; Table 2-1, sample 50 μg/mL): +46.6% | 3H-TdR incorporation (cpm, x ± SD) ([3]; Table 2-1, sample 100 μg/mL): 20574 ± 2746 cpm | Enhancement percentage ([3]; Table 2-1, sample 100 μg/mL): +56.6% | half-life [4]: 24 min

Reference: patent US8080522B2, “Polyethlene glycol modifications of thymosin alpha-1” (Institute of Pharmacology and Toxicology Academy of …, priority 2005, dated 2011)
